Drawing on patent US10253041B2, “7-phenylethylamino-4H-pyrimido[4,5-d][1,3]oxazin-2-one compounds and their use as mutant IDH1 inhibitors” (Eli Lilly and Company, priority 2015, dated 2019), this text covers IC50 and HT1080 (R132C, 2-hydroxyglutarate) IC50 for 19 compounds.

One may read the IC50 as the midpoint of a concentration-inhibition curve.

The subject of this assay is IDH1 mutant R132C in fibrosarcoma cell line HT1080. Put plainly: HT1080 cell assay (intracellular 2HG and αKG). In kind it is cell-based. Conditions: Homo sapiens; for IC50: 1 hour + 18 hours incubation; for HT1080 (R132C, 2-hydroxyglutarate) IC50: read-out: HT1080 (R132C, 2-hydroxyglutarate) IC50 (μM), intracellular 2HG, 1 hour + 18 hours incubation. As to the method: To test the cellular inhibition of IDH1 mutant R132C, the fibrosarcoma cell line HT1080 (purchased from ATCC) is used. For testing cell-based inhibition of the R132H mutation, the U87MG glioma cell line (ATCC) was stably transfected with a DNA construct expressing the R132H mutant enzyme.
Fifteen thousand cells are plated in poly-D-lys coated 96 well plates (15,000 cells/well) 18-24 hours prior to treatment with compounds. Four hours prior to compound treatment, cells are glutamine-starved by removing normal media and replacing with glutamine-free media. Following starvation, cells are then treated with different concentrations of test compounds (20 μM to 1 nM) dissolved in glutamine free media containing DMSO at a final concentration of 0.2%. The initial compound incubation is for 1 hour at 37° C./5% CO2. After 1 hour, glutamine is added to a final 2 mM concentration and the treated cells are then incubated for a further 18 hours at 37° C./5% CO2. Following the 18 hour incubation, intracellular 2HG and αKG are analyzed in cell lysates. Lysates are prepared following removal of media and addition of buffer containing 25 mM Tris-HCl pH 7.5, 150 mM NaCl, 1 mM EDTA, 1 mM EGTA/1% Triton-X 100 to the cells. An aliquot of lysate is added to a mix of d6-αKG and d5-3HG as internal standards and the mixture is treated with O-benzylhydroxylamine in the presence of N-(3-dimethylaminopropyl)-N′-ethylcarbodiimide hydrochloride (EDC) and pyridine. Analyte derivatives are then extracted with EtOAc, dried, and then reconstituted with 50% MeOH in H2O. Samples prepared as described are injected into the HPLC to separate 2HG and αKG derivatives (and corresponding internal standards) using a reverse phase chromatography in a C18 column. Analysis of the samples is carried out using a 6460 triple quadrupole mass spectrometer (G6460A Agilent). The 2HG and αKG signals detected are transformed into analyte concentration using the ratio of αKG/d6-αKG and the ratio of 2HG/d5-3HG that is extrapolated within a calibration curve. Percent inhibition for each individual sample is obtained after normalizing calculated 2HG or aKG concentration to maximum and minimum references obtained in the presence and in the absence of glutamine during cell treatment with compounds. IC50 values are obtained from individual % inhibition using a sigmoidal dose-response 4-parameter equation. These calculations are carried out automatically using Activity Base (IDBS) or Screener (Genedata) data analysis programs.

[1] abbreviates: HT-1080, 19 h, intracellular 2HG, read-out: HT1080 (R132C, 2-hydroxyglutarate) IC50.
The mark [2] stands for this setting: HT-1080, intracellular αKG, read-out: HT1080 (R132C, αKG) IC50.

SMILES strings stand for the structures. Read-outs that look alike come from different tables or passages of the source. Where only a bound is given, the exact number is not on record here.

Consider `C=CC(=O)N1CCC2(CC1)CN(Cc1ccc([C@H](C)Nc3ncc4c(n3)N(C(C)C)C(=O)OC4)cc1)C2` [Example 8, 1-Isopropyl-7-[[(1S)-1-[4-[(7-prop-2-enoyl-2,7-diazaspiro[3.5]nonan-2-yl)methyl]phenyl]ethyl]amino]-4H-pyrimido[4,5-d][1,3]oxazin-2-one], for which the IC50 under setting [1] is 0.077 ± 0.0425 µM and the IC50 under setting [2] is more than 20 µM.

For the compound `C=CC(=O)N1CCN(Cc2ccc([C@H](C)Nc3ncc4c(n3)N(CCF)C(=O)OC4)cc2)CC1` [Example 21, 1-(2-fluoroethyl)-7-[[(1S)-1-[4-[(4-prop-2-enoylpiperazin-1-yl)methyl]phenyl]ethyl]amino]-4H-pyrimido[4,5-d][1,3]oxazin-2-one], the 50% inhibitory concentration (IC50) by setting is: under setting [1], 0.408 µM; under setting [2], more than 20 µM.

As to `C=CC(=O)N1CC2(CN(Cc3ccc([C@H](C)Nc4ncc5c(n4)N(CC(C)C)C(=O)OC5)cc3)C2)C1` [Example 5, 1-Isobutyl-7-[[(1S)-1-[4-[(2-prop-2-enoyl-2,6-diazaspiro[3.3]heptan-6-yl)methyl]phenyl]ethyl]amino]-4H-pyrimido[4,5-d][1,3]oxazin-2-one], the IC50 runs as follows: under setting [1], 0.0447 ± 0.0193 µM; under setting [2], more than 20 µM.

Consider `C=CC(=O)N1CCN(Cc2ccc([C@H](C)Nc3ncc4c(n3)N(CC(C)C)C(=O)OC4)cc2)CC1` [Example 3, 1-Isobutyl-7-[[(1S)-1-[4-[(4-prop-2-enoylpiperazin-1-yl)methyl]phenyl]ethyl]amino]-4H-pyrimido[4,5-d][1,3]oxazin-2-one], for which the HT1080 (R132C, 2-hydroxyglutarate) IC50 (HT-1080, 19 h) turned out to be 0.0231 ± 0.0024 µM. The IC50 under setting [2] was more than 20 µM.

With `C=CC(=O)N1CCN(Cc2ccc([C@H](C)Nc3ncc4c(n3)N([C@H](C)CO)C(=O)OC4)cc2)CC1` [Example 11, 1-[(1R)-2-Hydroxy-1-methyl-ethyl]-7-[[(1S)-1-[4-[(4-prop-2-enoylpiperazin-1-yl)methyl]phenyl]ethyl]amino]-4H-pyrimido[4,5-d][1,3]oxazin-2-one], where the note is “HT-1080, 19 h”, the HT1080 (R132C, 2-hydroxyglutarate) IC50 is 0.0321 ± 0.0108 µM. Also, under setting [2], the half-maximal inhibitory concentration (IC50) is more than 20 µM.

As to `C=CC(=O)N1CC2(CN(Cc3ccc([C@H](C)Nc4ncc5c(n4)N(C(C)C)C(=O)OC5)cc3)C2)C1` [Example 15, 1-Isopropyl-7-[[(1S)-1-[4-[(2-prop-2-enoyl-2,6-diazaspiro[3.3]heptan-6-yl)methyl]phenyl]ethyl]amino]-4H-pyrimido[4,5-d][1,3]oxazin-2-one], the HT1080 (R132C, 2-hydroxyglutarate) IC50 (HT-1080, 19 h) came to 0.0278 ± 0.00623 µM. Under setting [2], the 50% inhibitory concentration (IC50) is more than 20 µM.

Consider `C=CC(=O)N1CC(CCc2ccc([C@H](C)Nc3ncc4c(n3)N(CC)C(=O)OC4)cc2)C1` [Example 7, 1-Ethyl-7-[[(1S)-1-[4-[2-(1-prop-2-enoylazetidin-3-yl)ethyl]phenyl]ethyl]amino]-4H-pyrimido[4,5-d][1,3]oxazin-2-one], for which the IC50 is 0.0387 ± 0.0013 µM under setting [1] and more than 20 µM under setting [2].

With `C=CC(=O)N1CC(OCc2ccc([C@H](C)Nc3ncc4c(n3)N(CC)C(=O)OC4)cc2)C1` [Example 4, 1-Ethyl-7-[[(1S)-1-[4-[(1-prop-2-enoylazetidin-3-yl)oxymethyl]phenyl]ethyl]amino]-4H-pyrimido[4,5-d][1,3]oxazin-2-one], where the note is “HT-1080, 19 h”, the HT1080 (R132C, 2-hydroxyglutarate) IC50 was determined as 0.0283 ± 0.0147 µM. In addition, the IC50 under setting [2] is more than 20 µM.

In the case of `C=CC(=O)N1CC2(CN(Cc3ccc([C@H](C)Nc4ncc5c(n4)N(CC)C(=O)OC5)cc3)C2)C1` [Example 14, 1-Ethyl-7-[[(1S)-1-[4-[(2-prop-2-enoyl-2,6-diazaspiro[3.3]heptan-6-yl)methyl]phenyl]ethyl]amino]-4H-pyrimido[4,5-d][1,3]oxazin-2-one], the IC50 reads like this: under setting [1], 0.0898 ± 0.0552 µM; under setting [2], more than 20 µM.

Regarding `C=CC(=O)N1CC=C(COc2ccc([C@H](C)Nc3ncc4c(n3)N(CC)C(=O)OC4)cc2)C1` [Example 22, 1-ethyl-7-[[(1S)-1-[4-[(1-prop-2-enoyl-2,5-dihydropyrrol-3-yl)methoxy]phenyl]ethyl]amino]-4H-pyrimido[4,5-d][1,3]oxazin-2-one], the 50% inhibitory concentration (IC50) reads like this: under setting [1], 0.0431 ± 0.044 µM; under setting [2], more than 20 µM.

On to `C=CC(=O)N1CCN(Cc2ccc([C@H](C)Nc3ncc4c(n3)N(CC(F)F)C(=O)OC4)cc2)CC1` [Example 20, 1-(2,2-difluoroethyl)-7-[[(1S)-1-[4-[(4-prop-2-enoylpiperazin-1-yl)methyl]phenyl]ethyl]amino]-4H-pyrimido[4,5-d][1,3]oxazin-2-one], for which the IC50 was 0.0955 ± 0.0249 µM under setting [1] and more than 20 µM under setting [2].

As for `C=CC(=O)N1CC(COc2ccc([C@H](C)Nc3ncc4c(n3)N(CC)C(=O)OC4)cc2)C1` [Example 17, 1-Ethyl-7-[[(1S)-1-[4-[(1-prop-2-enoylazetidin-3-yl)methoxy]phenyl]ethyl]amino]-4H-pyrimido[4,5-d][1,3]oxazin-2-one], the IC50 was 0.099 ± 0.0351 µM under setting [1] and more than 20 µM under setting [2].

For the compound `C=CC(=O)N1CCN(c2ccc([C@H](C)Nc3ncc4c(n3)N(C(C)C)C(=O)OC4)cc2)CC1` [Example 6, 1-Isopropyl-7-[[(1S)-1-[4-(4-prop-2-enoylpiperazin-1-yl)phenyl]ethyl]amino]-4H-pyrimido[4,5-d][1,3]oxazin-2-one], the IC50 is, setting by setting: under setting [1], 0.153 ± 0.082 µM; under setting [2], more than 20 µM.

On to `C=CC(=O)N1CC(OCc2ccc([C@H](C)Nc3ncc4c(n3)N(CC(C)C)C(=O)OC4)cc2)C1` [Example 13, 1-Isobutyl-7-[[(1S)-1-[4-[(1-prop-2-enoylazetidin-3-yl)oxymethyl]phenyl]ethyl]amino]-4H-pyrimido[4,5-d][1,3]oxazin-2-one], for which the IC50 by setting is: under setting [1], 0.128 ± 0.009 µM; under setting [2], more than 20 µM.

Take `C=CC(=O)N1CCN(Cc2ccc([C@H](C)Nc3ncc4c(n3)N(C)C(=O)OC4)cc2)CC1` [Example 19, 1-Methyl-7-[[(1S)-1-[4-[(4-prop-2-enoylpiperazin-1-yl)methyl]phenyl]ethyl]amino]-4H-pyrimido[4,5-d][1,3]oxazin-2-one]: under setting [2], the half-maximal inhibitory concentration (IC50) is more than 20 µM.

With `C=CC(=O)N1CC(N(C)Cc2ccc([C@H](C)Nc3ncc4c(n3)N(CC)C(=O)OC4)cc2)C1` [Example 10, 1-Ethyl-7-[[(1S)-1-[4-[[methyl-(1-prop-2-enoylazetidin-3-yl)amino]methyl]-phenyl]ethyl]amino]-4H-pyrimido[4,5-d][1,3]oxazin-2-one], the IC50 is, setting by setting: under setting [1], 0.0978 ± 0.0431 µM; under setting [2], more than 20 µM.

With `C=CC(=O)N1CC(COc2ccc([C@H](C)Nc3ncc4c(n3)N(C(C)C)C(=O)OC4)cc2)C1` [Example 9, 1-Isopropyl-7-[[(1S)-1-[4-[(1-prop-2-enoylazetidin-3-yl)methoxy]-phenyl]ethyl]amino]-4H-pyrimido[4,5-d][1,3]oxazin-2-one], the IC50 is 0.0323 ± 0.0117 µM under setting [1] and more than 20 µM under setting [2].

In the case of `C=CC(=O)N1CCN(Cc2ccc([C@H](C)Nc3ncc4c(n3)N(CC)C(=O)OC4)cc2F)CC1` [Example 16, 1-Ethyl-7-[[(1S)-1-[3-fluoro-4-[(4-prop-2-enoylpiperazin-1-yl)methyl]phenyl]ethyl]amino]-4H-pyrimido[4,5-d][1,3]oxazin-2-one], the 50% inhibitory concentration (IC50) is 0.0349 ± 0.0171 µM under setting [1] and more than 20 µM under setting [2].

For the compound `C=CC(=O)N1CCC(N(C)Cc2ccc([C@H](C)Nc3ncc4c(n3)N(CC)C(=O)OC4)cc2)CC1` [Example 12, 1-Ethyl-7-[[(1S)-1-[4-[[methyl-(1-prop-2-enoyl-4-piperidyl)amino]-methyl]phenyl]ethyl]amino]-4H-pyrimido[4,5-d][1,3]oxazin-2-one], the concentration for half-maximal inhibition (IC50) is 0.12 ± 0.02 µM under setting [1] and more than 20 µM under setting [2].
